Calls of active or inactive are those of the source.
Assays:
[1] = target: Peroxisome proliferator-activated receptor gamma/Nuclear receptor coactivator 1 (Homo sapiens, UniProt P37231); test: (§1) TR-FRET dose response biochemical High Throughput Screening assay for agonists of the steroid receptor coactivator 1 (SRC-1) recruitment by the peroxisome proliferator-activated receptor gamma (PPAR gamma): non-selective agonists. [Related pubchem assays (depositor defined):AID1300, AID1808, AID504735, AID631]; type: protein assay
[2] = target: Peroxisome proliferator-activated receptor gamma/Nuclear receptor coactivator 3 (Homo sapiens, UniProt P37231); test: as §1, with “3 (SRC-3)” for “1 (SRC-1)”, “assays: 1301 (Confirmation screen.), 1048 (Primary screen.)]” for “assays (depositor defined):AID1300, AID1808, AID504735, AID631]”; type: functional
[3] = target: Peroxisome proliferator-activated receptor gamma/Nuclear receptor coactivator 2 (Homo sapiens, UniProt P37231); test: TR-FRET dose response biochemical High Throughput Screening assay for agonists of the steroid receptor coactivator 2 (SRC-2) recruitment by the peroxisome proliferator-activated receptor gamma (PPAR gamma): non-selective agonists. [Related pubchem assays: 1297, 1032 ]; type: functional
Cytochrome P450 2D6 = Cytochrome P450 2D6 (Homo sapiens, UniProt P10635);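 further: CYP2D6 member of a cytochrome P450 panel assay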
Cytochrome P450 2D6, sequence (P10635 whole entry): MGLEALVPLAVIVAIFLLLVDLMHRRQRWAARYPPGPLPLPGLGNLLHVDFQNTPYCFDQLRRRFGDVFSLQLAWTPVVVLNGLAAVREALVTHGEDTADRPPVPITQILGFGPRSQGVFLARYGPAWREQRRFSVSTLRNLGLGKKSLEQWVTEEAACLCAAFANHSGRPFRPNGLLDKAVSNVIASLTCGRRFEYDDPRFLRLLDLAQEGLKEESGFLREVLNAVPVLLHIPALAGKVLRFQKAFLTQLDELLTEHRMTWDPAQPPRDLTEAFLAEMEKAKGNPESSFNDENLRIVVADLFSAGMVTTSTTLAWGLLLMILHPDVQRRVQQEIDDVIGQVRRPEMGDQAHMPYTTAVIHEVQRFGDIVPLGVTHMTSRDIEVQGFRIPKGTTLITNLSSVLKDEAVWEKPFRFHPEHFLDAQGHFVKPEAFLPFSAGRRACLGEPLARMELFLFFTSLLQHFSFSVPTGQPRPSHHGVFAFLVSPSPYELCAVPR

[4] = Luminescence Cell-Based Dose Retest to Confirm Inhibitors of Cancer Stem Cells. [Related pubchem assays (depositor defined):AID2717, AID2721]; type: functional; conditions: Homo sapiens
[5] = cytotoxicity in HEK-293T cells, dose response, cytotoxicity control for TCR NF-kB inhibitor project, luminescence, T-cell screen hits (AID 489026); type: functional, cell-based;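 further: cells exposed to compound about 14 hours before the viability readout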
[6] = inhibitors of HIV Env-driven cell fusion, dose response, cherry-pick (AID 652057); type: functional, cell-based
[7] = ZM109 Env clade C HIV-1 fusion inhibitors, dose response, HeLa effector, CEM target cells, luciferase, cherry-pick (AID 652058); type: functional, cell-based
[8] = off-target signal loss in HeLa-CEM21 co-culture – HeLa F-luc CTL cells, cherry-picked, counter-screen for HIV-1 Env fusion inhibitor project, dose response (AID 652040); type: functional, cell-based;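 further: potency for signal decrease marking cytotoxic or nonspecific inhibition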
[9] = inhibitors of clade B AD8 Env fusion, dose response, cell-based, cherry-pick (AID 652062); type: functional;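 further: luciferase signal from cell-cell fusion driven by HIV-1 clade B AD8 Env; potency is for inhibitors of fusion seen as a drop in luminescence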
Cytochrome P450 1A2 = target: T1, Cytochrome P450 1A2 (Homo sapiens, UniProt P05177);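 further: PubChem cytochrome P450 panel assay, CYP1A2 panel member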
T1 sequence (P05177 whole entry): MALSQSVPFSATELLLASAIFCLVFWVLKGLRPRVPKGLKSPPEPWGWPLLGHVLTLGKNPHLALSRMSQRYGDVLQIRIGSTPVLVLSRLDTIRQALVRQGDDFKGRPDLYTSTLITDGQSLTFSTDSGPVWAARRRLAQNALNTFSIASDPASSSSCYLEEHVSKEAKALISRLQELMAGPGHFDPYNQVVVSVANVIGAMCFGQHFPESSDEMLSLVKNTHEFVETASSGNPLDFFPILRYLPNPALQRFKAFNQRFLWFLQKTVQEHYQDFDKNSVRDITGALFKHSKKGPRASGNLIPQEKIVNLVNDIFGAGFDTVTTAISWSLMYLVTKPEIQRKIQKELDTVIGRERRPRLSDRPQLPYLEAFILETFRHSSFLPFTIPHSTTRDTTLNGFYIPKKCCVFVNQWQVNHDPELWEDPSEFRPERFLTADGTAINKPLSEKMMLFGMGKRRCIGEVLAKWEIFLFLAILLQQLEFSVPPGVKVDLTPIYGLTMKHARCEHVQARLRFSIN

[10] = target: T2, Mannose-6-phosphate isomerase (Homo sapiens, UniProt P34949); test: human PMI inhibitors, high substrate, primary screen, biochemical, fluorescence intensity, high mannose 6-phosphate (AID 1220)
T2 sequence (P34949 whole entry): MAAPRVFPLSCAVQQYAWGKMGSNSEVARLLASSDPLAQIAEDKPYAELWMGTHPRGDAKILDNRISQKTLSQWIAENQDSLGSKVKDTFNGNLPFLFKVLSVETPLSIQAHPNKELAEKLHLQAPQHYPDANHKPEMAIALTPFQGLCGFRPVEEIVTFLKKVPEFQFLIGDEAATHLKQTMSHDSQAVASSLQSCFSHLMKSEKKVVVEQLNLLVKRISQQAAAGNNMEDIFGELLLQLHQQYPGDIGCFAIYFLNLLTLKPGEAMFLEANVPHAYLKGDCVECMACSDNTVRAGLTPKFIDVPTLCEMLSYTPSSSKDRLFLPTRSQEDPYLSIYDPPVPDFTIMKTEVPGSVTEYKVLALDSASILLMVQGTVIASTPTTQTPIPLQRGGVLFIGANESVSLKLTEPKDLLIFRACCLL

Prothrombin = Prothrombin (Homo sapiens, UniProt P00734); test: Thrombin 1536 HTS Dose Response Confirmation. [Related pubchem assays: 1046 (Thrombin 1536 HTS; hits were confirmed in this assay)]; type: functional
[11] = target: Voltage-gated inwardly rectifying potassium channel KCNH2 (Homo sapiens, UniProt Q12809); conditions: Potency;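 further: confirmatory quantitative high-throughput screen measuring inhibition of hERG channel activity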
Voltage-gated inwardly rectifying potassium channel KCNH2, sequence (Q12809 whole entry): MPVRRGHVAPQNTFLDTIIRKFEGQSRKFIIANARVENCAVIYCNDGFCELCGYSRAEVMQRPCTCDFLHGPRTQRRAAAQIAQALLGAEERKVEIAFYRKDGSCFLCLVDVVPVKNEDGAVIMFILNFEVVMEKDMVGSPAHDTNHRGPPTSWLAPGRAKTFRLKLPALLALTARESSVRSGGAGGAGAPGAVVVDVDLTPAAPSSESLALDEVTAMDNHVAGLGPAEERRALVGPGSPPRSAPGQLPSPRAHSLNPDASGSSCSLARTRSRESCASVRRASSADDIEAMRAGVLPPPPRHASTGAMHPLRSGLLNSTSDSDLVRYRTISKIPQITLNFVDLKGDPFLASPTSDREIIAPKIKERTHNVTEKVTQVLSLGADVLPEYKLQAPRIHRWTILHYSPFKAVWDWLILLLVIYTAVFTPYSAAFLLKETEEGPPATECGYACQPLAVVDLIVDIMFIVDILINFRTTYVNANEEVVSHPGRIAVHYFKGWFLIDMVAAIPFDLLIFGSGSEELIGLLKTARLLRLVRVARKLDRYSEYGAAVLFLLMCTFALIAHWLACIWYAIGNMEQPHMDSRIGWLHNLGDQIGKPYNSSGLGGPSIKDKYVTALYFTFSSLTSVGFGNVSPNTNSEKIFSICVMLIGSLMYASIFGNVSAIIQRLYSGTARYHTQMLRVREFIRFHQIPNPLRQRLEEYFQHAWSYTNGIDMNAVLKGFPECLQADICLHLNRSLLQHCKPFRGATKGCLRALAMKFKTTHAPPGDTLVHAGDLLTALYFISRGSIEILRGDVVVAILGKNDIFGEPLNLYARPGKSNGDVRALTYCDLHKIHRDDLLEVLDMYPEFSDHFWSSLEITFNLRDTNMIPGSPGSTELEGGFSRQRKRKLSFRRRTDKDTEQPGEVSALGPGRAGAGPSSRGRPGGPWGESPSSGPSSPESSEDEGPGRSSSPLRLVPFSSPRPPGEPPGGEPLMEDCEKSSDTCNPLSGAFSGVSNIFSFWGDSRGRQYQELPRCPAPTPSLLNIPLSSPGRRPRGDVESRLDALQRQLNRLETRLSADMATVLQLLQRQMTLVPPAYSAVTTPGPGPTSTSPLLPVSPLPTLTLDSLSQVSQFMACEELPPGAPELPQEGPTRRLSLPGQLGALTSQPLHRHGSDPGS

[12] = inhibitors of intracellular T. cruzi replication, confirmation, NIH3T3 host cells, beta-gal luminescence (AID 2044); type: functional, cell-based;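 further: intracellular parasites grown in NIH/3T3 mouse fibroblasts as host cells; luminescent beta-galactosidase reporter signal from transgenic T. cruzi replicating inside host cells; inhibitors lower the luminescence signal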
[13] = cytotoxicity toward NIH3T3 fibroblasts, dose response, counter-screen, cell-based, ATP luminescence, mouse fibroblasts (AID 2010); type: functional;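 further: cells exposed to compound for about 90 hours before reading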
[14] = target: T3, Microphthalmia-associated transcription factor (Homo sapiens, UniProt O75030); test: TRPM1 promoter luciferase signal decrease, dose response, MITF inhibitor project, cell-based, SK-MEL-5, cherry-picked, set 3 (AID 493073); type: functional
T3 sequence (O75030 whole entry): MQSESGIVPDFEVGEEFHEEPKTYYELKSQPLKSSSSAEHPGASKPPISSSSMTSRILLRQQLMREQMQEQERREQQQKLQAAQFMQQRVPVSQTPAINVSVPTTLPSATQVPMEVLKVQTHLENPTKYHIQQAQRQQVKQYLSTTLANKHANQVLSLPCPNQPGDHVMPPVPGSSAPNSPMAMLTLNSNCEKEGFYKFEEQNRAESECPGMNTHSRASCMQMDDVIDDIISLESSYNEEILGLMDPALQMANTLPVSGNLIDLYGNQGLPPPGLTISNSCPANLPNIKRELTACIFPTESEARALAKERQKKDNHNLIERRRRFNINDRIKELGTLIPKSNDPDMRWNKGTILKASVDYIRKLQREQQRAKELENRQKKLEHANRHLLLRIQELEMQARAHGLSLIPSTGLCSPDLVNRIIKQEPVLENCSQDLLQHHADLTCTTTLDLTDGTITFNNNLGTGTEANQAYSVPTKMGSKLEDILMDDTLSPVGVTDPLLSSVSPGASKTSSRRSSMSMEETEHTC

Beta-galactosidase = Beta-galactosidase (Escherichia coli, UniProt Q8VNN2); test: beta-galactosidase enzyme inhibitors and activators, dose response, artefact control for CCR6 antagonist project, biochemical, E. coli enzyme, set 3 (AID 504712); type: functional
Beta-galactosidase, sequence (Q8VNN2 whole entry): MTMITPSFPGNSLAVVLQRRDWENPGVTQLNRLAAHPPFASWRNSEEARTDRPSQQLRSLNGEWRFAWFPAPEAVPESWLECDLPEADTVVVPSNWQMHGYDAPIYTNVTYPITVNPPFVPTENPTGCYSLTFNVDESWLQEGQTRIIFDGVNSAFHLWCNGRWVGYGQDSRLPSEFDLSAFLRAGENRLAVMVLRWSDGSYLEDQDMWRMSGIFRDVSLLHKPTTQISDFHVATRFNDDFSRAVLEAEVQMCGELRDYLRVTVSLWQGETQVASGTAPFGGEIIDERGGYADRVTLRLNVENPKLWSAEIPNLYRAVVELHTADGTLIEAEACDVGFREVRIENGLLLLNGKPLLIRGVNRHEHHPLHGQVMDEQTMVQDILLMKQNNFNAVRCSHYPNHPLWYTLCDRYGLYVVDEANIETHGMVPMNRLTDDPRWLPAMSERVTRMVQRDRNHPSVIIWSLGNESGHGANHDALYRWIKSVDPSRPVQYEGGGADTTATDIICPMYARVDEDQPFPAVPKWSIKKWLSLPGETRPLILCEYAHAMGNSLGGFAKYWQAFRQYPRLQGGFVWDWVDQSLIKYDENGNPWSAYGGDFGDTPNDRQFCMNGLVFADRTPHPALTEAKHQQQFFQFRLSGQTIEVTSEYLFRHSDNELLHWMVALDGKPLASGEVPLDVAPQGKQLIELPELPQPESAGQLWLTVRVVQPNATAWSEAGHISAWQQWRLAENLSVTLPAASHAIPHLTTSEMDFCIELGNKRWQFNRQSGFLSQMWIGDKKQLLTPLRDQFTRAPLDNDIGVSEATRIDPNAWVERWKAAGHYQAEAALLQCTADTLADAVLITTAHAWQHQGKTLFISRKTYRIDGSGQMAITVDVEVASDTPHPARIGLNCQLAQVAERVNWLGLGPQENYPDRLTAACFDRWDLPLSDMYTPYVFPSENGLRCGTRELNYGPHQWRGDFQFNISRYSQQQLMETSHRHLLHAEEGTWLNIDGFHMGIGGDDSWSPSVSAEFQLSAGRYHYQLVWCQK

[15] = target: DNA dC->dU-editing enzyme APOBEC-3A (Homo sapiens, UniProt P31941); test: Dose Response confirmation of small molecule APOBEC3A DNA Deaminase Inhibitors via a fluorescence-based single-stranded DNA deaminase assay. [Related pubchem assays (depositor defined):AID493011, AID493024]; type: functional
DNA dC->dU-editing enzyme APOBEC-3A, sequence (P31941 whole entry): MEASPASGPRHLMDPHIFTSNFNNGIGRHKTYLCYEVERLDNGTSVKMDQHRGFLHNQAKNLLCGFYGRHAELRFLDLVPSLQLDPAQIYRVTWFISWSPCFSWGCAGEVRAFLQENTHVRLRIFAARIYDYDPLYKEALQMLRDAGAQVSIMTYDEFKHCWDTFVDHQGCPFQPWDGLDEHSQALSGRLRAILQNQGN

[16] = target: DNA dC->dU-editing enzyme APOBEC-3G (Homo sapiens, UniProt Q9HC16); type: functional;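 further: Dose-response counterscreen measuring inhibition of APOBEC3G DNA deaminase activity, run while confirming APOBEC3A inhibitors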
DNA dC->dU-editing enzyme APOBEC-3G, sequence (Q9HC16 whole entry): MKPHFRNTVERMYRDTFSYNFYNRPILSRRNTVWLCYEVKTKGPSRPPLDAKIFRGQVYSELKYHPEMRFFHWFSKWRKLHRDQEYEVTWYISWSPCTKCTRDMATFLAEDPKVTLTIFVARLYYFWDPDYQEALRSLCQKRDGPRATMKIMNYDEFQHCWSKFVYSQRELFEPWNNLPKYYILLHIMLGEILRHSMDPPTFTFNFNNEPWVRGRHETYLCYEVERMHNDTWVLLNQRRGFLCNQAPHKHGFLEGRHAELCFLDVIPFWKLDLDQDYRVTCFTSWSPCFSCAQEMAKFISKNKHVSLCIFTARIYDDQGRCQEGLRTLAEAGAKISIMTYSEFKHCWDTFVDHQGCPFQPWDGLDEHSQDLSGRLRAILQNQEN

SUMO-activating enzyme [17] = target: T4, SUMO-activating enzyme (Homo sapiens, UniProt Q9UBT2); test: SUMOylation inhibitor hit validation, confirmation, SUMOylation inhibitor project, biochemical, AlphaScreen (AID 2018); type: functional
T4 sequence (Q9UBE0 whole entry): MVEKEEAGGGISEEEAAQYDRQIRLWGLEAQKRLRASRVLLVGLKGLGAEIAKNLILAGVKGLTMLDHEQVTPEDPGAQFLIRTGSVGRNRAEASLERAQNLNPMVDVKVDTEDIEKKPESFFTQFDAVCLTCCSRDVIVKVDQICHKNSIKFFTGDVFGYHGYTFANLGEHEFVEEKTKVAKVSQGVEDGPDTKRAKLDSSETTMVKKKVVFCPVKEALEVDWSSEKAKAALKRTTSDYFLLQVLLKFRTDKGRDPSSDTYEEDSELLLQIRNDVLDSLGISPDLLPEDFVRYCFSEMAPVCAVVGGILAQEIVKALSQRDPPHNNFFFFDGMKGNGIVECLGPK
T4 sequence (Q9UBT2 whole entry): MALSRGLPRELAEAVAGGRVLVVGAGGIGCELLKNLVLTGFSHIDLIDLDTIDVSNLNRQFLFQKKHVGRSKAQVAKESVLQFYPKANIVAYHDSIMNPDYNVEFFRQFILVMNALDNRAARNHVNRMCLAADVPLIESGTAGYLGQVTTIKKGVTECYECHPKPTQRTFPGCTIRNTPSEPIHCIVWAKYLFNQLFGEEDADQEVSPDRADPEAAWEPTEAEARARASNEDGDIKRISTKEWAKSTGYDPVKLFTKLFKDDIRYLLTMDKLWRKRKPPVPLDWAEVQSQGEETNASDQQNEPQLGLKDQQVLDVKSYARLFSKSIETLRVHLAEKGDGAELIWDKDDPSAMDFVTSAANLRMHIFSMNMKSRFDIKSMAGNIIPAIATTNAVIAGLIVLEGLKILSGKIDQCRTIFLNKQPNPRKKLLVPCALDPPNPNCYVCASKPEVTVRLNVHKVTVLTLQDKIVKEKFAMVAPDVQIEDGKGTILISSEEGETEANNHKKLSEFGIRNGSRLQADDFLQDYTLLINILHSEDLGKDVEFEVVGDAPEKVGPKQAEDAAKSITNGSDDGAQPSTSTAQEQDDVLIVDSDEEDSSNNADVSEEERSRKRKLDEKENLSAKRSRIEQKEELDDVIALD

Vero [18] = test: host cell cytotoxicity of antiviral hits, dose response, cytotoxicity control for West Nile virus antiviral project, secondary assay (AID 1650); type: functional; conditions: Chlorocebus sabaeus
SUMO-activating enzyme [19] = target: T4, SUMO-activating enzyme; test: inhibitors of in vitro SUMOylation cascade, primary screen, biochemical, HTRF, uHTS (AID 2006); type: protein-complex assay
[20] = Luminescence Cell-Based Dose Confirmation HTS to Identify Activators of 5'UTR Stem-Loop Driven Alpha-Synuclein mRNA Translation in H4 Neuroglioblastoma Cells. [Related pubchem assays: 1829 (Project Summary), 1814 (Primary HTS)]; type: functional
[21] = Luminescence Cell-Based Dose Response HTS to Identify Activators of Luciferase Translation or Activity in H4 […] Cells. [Related pubchem assays: 1829 (Project Summary), 1814 (Primary HTS)]; type: functional
H4 = test: Luminescence Cell-Based Dose Response HTS to Identify Activators of 5'UTR Stem-Loop Driven Prion Protein mRNA Translation in H4 Neuroglioblastoma Cells. [Related pubchem assays: 1829 (Project Summary), 1814 (Primary HTS)]; type: functional; conditions: Homo sapiens
Vero [22] = test: cells; type: functional; conditions: Chlorocebus sabaeus
[23] = target: Induced myeloid leukemia cell differentiation protein Mcl-1 (Homo sapiens, UniProt Q07820); type: functional
Nonstructural protein 1 = Nonstructural protein 1 (Influenza A virus, UniProt Q194T2); type: functional, Influenza A virus (A/California/07/2009(H1N1))
Nonstructural protein 1, sequence (Q194T2 whole entry, the tested form may be a part): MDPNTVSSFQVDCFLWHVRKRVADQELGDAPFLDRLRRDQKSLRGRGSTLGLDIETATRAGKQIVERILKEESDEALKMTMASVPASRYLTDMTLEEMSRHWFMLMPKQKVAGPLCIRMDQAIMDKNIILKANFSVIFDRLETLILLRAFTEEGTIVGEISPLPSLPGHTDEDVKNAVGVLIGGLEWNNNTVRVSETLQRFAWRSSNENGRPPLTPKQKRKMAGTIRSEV

[24] = target: T5, Carboxy-terminal domain RNA polymerase II polypeptide A small phosphatase 1 (Homo sapiens, UniProt Q9GZU7); test: inhibitors of CTDSP1, concentration-response testing, biochemical assay, absorbance-based, actives from ultra-high-throughput screening (AID 540297); type: functional
T5 sequence (Q9GZU7 whole entry): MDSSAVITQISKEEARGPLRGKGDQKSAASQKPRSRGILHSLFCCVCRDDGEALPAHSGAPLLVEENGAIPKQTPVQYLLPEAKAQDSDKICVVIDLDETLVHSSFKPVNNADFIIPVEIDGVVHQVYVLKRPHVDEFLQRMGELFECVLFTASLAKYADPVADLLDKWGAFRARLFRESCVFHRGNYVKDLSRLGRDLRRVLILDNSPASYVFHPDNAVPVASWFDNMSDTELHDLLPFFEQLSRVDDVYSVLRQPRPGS

Cytochrome P450 3A4 = Cytochrome P450 3A4 (Homo sapiens, UniProt P08684);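 further: CYP3A4 tested as one member of a cytochrome P450 panel screen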
Cytochrome P450 2C9 = Cytochrome P450 2C9 (Homo sapiens, UniProt P11712)
Cytochrome P450 2C9, sequence (P11712 whole entry): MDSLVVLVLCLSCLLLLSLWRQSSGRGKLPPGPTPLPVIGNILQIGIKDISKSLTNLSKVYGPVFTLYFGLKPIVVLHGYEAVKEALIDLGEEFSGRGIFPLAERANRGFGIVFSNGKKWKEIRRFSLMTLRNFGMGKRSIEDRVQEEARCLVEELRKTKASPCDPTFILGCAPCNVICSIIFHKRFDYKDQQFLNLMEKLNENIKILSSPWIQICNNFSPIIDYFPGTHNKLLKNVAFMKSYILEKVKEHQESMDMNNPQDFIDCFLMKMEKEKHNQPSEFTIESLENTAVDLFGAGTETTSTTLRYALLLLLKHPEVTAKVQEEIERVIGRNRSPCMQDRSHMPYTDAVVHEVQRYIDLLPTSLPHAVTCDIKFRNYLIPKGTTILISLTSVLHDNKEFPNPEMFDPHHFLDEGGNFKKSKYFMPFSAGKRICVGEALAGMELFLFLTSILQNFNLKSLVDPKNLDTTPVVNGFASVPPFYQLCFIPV

CCOc1ccc2c(c1)nc(SCC(=O)c1ccc(Br)s1)n2C
EC50 [1]: > 79.4 µM (inactive)
EC50 [2]: > 79.4 µM (not active)
EC50 [3]: 22.9 µM (not active)
AC50 (Cytochrome P450 2D6): 12.6 µM (inconclusive)

O=C(Nc1ccc(C(F)(F)F)cc1)c1cccn(Cc2ccc3c(c2)OC(F)(F)O3)c1=O
AC50 [4]: 3.68 µM (active)
IC50 [5]: > 80 µM (inactive)
AC50 [6]: 22.5 µM (active)
AC50 [7]: 0.59 µM (active)
AC50 [8]: 50.7 µM (active)
AC50 [9]: 6 µM (active)
AC50 (Cytochrome P450 1A2): 25.1 µM (inconclusive)

CN(C)c1ccc(C(=S)N2CCOCC2)cc1Br
IC50 [10]: > 50 µM (not active)

Nc1nc(-c2cccnc2)nn1C(=O)Cc1ccccc1
IC50 (Prothrombin): 0.0753 µM (active)

CN1CCC23CCCC[C@H]2C1Cc1ccc(O)cc13 (stereo partly drawn)
AC50 [11]: 2.51 µM (inconclusive)

CN(Cc1ccccc1)C1=CC(=[N+]2CCCC2)CC(C)(C)C1
EC50 [12]: 0.171 µM (active)
EC50 [13]: > 60 µM (not active)
IC50 [5]: > 80 µM (inactive)
AC50 [14]: 1.55 µM (active)

O=C(NC(=S)N(CCc1ccccc1)CCc1ccccc1)c1ccco1
IC50 (Beta-galactosidase): > 66.6 µM (inactive)

CCCCn1c(N)c(C(=S)NC(=O)CC(C)C)c(=O)n(C)c1=O
IC50 (Beta-galactosidase): > 66.6 µM (inactive)

Cn1nnnc1SCC(=O)Nc1ccc(Br)cc1Cl
IC50 [15]: 5.35 µM (active)
IC50 [16]: 9.75 µM (active)

C=C(C)COc1ccc(-c2[nH]nc(C)c2-c2ccc(OC)c(OC)c2)c(O)c1
AC50 [4]: 1.36 µM (active)
IC50 [5]: 44.6 µM (inactive)

O=C(Nc1ccc(S(=O)(=O)N2CCCCC2)cc1)c1ccc(CN2CCOCC2)cc1
IC50 [5]: 27.2 µM (inactive)

O=C1NCC(COCc2ccco2)O1 (stereo not drawn)
IC50 (Prothrombin): > 50 µM (not active)

O=C(c1ccco1)n1nc(-c2ccco2)nc1SCc1ccccc1
IC50 (Prothrombin): 0.201 µM (active)

CC1=C(C(=O)Nc2ccccc2)C(c2ccc(C)cc2)NC(Nc2nc3ccccc3o2)=N1 (stereo not drawn)
IC50 (SUMO-activating enzyme [17]): 20.2 µM (active)
CC50 (Vero [18]): > 100 µM (active)
IC50 (SUMO-activating enzyme [19]): 4.07 µM (active)
EC50 [12]: 0.982 µM (active)
EC50 [13]: 22.3 µM (active)

CC1=NN(c2ccccc2)C(=O)/C1=C\C=C\c1ccccc1
EC50 [20]: > 120 µM (not active)
EC50 [21]: 27.3 µM (active)
EC50 (H4): > 120 µM (not active)
CC50 (Vero [18]): 26.8 µM (active)
AC50 [4]: 4.82 µM (active)
CC50 (Vero [22]): 12.1 µM (active)

N#Cc1c2nc3ccccc3nc2n2cc(NC(=O)c3ccc(F)cc3)ccc12
IC50 (SUMO-activating enzyme [17]): 1.8 µM (active)
IC50 (SUMO-activating enzyme [19]): 2.96 µM (active)
IC50 [23]: 1.57 µM (active)

COc1ccc(-n2nc([N+](=O)[O-])c(NCCC3=CCCCC3)[n+]2[O-])cc1
EC50 [12]: 0.534 µM (active)
EC50 [13]: > 60 µM (not active)
IC50 (Nonstructural protein 1): 41.3 µM (active)

CCN(CC)c1ccc(NC(=O)CN2CCN(CC(=O)Nc3ccccc3OC)CC2)cc1
IC50 (Nonstructural protein 1): 79.6 µM (active)

C[N+]1(CC(=O)OCCCc2ccccc2)CCOCC1
IC50 [15]: 1.27 µM (active)
IC50 [16]: 1.93 µM (active)
IC50 [24]: 6.39 µM (active)
AC50 (Cytochrome P450 2D6): 12.6 µM (inconclusive)

CC(=NNc1ccc2ccccc2n1)c1ccccc1O
IC50 (Beta-galactosidase): > 66.6 µM (inactive)

CCCCN(C(=O)c1cnccn1)c1c(N)n(CCC)c(=O)[nH]c1=O
IC50 [15]: 13.7 µM (active)
IC50 [16]: 15.5 µM (active)

Brc1ccc(Oc2ccc(Br)cc2Br)c(Br)c1
AC50 [11]: 17.8 µM (inconclusive)

CC(O)C(=O)N/N=C/c1cccc2ccccc12 (stereo not drawn)
IC50 (Prothrombin): 48.8 µM (active)

C/C=C1/C(=O)C[C@H]2[C@@H]3CCC4=CC(=O)CC[C@]4(C)[C@H]3CC[C@]12C [E-GUGGULSTERONE]
AC50 [11]: 17.8 µM (inconclusive)

COc1ccc(-n2nc(C(F)(F)F)cc2-c2ccc(Cl)cc2)cc1 [SC-560]
AC50 (Cytochrome P450 3A4): 39.8 µM (inconclusive)
AC50 (Cytochrome P450 2C9): 25.1 µM (inconclusive)
AC50 [11]: 31.6 µM (inconclusive)
